Measurements from patent US10786484B2, “Mono- or di-substituted indole derivatives as dengue viral replication inhibitors” (Janssen Pharmaceuticals, Inc., priority 2015, dated 2020).
pEC50: −log10 of the molar value.

Key:
[1] = tested on: DENV-2 16681 strain labeled with eGFP; assay: DENV-2 antiviral assay (eGFP fluorescence read-out in Vero cells); format: cell-based, Dengue virus; conditions: DENV-2 16681 eGFP, MOI 0.5, 3 days
Protocol: The antiviral activity of all the compounds of the invention was tested against the DENV-2 16681 strain which was labeled with enhanced green fluorescent protein (eGPF). The culture medium consists of minimal essential medium supplemented with 2% of heat-inactivated fetal calf serum, 0.04% gentamycin (50 mg/mL) and 2 mM of L-glutamine. Vero cells, obtained from ECACC, were suspended in culture medium and 25 μL was added to 384-well plates (2500 cells/well), which already contain the antiviral compounds. Typically, these plates contain a 5-fold serial dilution of 9 dilution steps of the test compound at 200 times the final concentration in 100% DMSO (200 nL). […] Finally, each plate contains wells which are assigned as virus controls (containing cells and virus in the absence of compound), cell controls (containing cells in the absence of virus and compound) and medium controls (containing medium in the absence of cells, virus and compounds). To the wells assigned as medium control, 25 μL of culture medium was added instead of Vero cells. Once the cells were added to the plates, the plates were incubated for 30 minutes at room temperature to allow the cells to distribute evenly within the wells. Next, the plates were incubated in a fully humidified incubator (37° C., 5% CO2) until the next day. Then, DENV-2 strain 16681, labeled with eGFP, was added at a multiplicity of infection (MOI) of 0.5. Therefore, 15 μL of virus suspension was added to all the wells containing test compound and to the wells assigned as virus control. In parallel, 15 μL of culture medium was added to the medium and cell controls. Next, the plates were incubated for 3 days in a fully humidified incubator (37° C., 5% CO2). At the day of the read out, the eGFP fluorescence was measured using an automated fluorescence microscope at 488 nm (blue laser). Using an in-house LIMS system, inhibition dose response curves for each compound were calculated and the half maximal effective concentration (EC50) was determined. Therefore, the percent inhibition (I) for every test concentration is calculated using the following formula: I=100*([…])/(SVC−SCC); ST, SCC and SVC are the amount of eGFP signal in the test compound, cell control and virus control wells, respectively. The EC50 represents the concentration of a compound at which the virus replication is inhibited with 50%, as measured by a 50% reduction of the eGFP fluorescent intensity compared to the virus control. The EC50 is calculated using linear interpolation (Table 1).

[2] = tested on: Vero cells; conditions: African green monkey
[3] = tested on: DENV-1 strain TC974#666; assay: Tetravalent RT-qPCR assay Protocol A, serotype 1; format: cell-based; conditions: Dengue virus, DENV1, 72 h; RT-qPCR serotype 1 TC974#666, Vero cells, day 3
Protocol: (§1) The antiviral activity of the compounds of the invention was tested against DENV-1 strain TC974#666 (NCPV), DENV-2 strain 16681, DENV-3 strain H87 (NCPV) and DENV-4 strains H241 (NCPV) and EDEN (SG/06K2270DK1/2005; GenBank accession number QG398256) in a RT-qPCR assay. Therefore, Vero cells were infected with either DENV-1, or -2, or -3, or -4 in the presence or absence of test compounds. At day 3 post-infection, the cells were lysed and cell lysates were used to prepare cDNA of both a viral target (the 3′UTR of DENV; Table 2) and a cellular reference gene (β-actin, Table 2). Subsequently, a duplex real time PCR was performed on a Lightcycler480 instrument. The generated Cp value is inversely proportional to the amount of RNA expression of these targets. Inhibition of DENV replication by a test compound results in a shift of Cp's for the 3′UTR gene. On the other hand, if a test compound is toxic to the cells, a similar effect on β-actin expression will be observed. The comparative ΔΔCp method is used to calculate EC50, which is based on the relative gene expression of the target gene (3′UTR) normalized with the cellular housekeeping gene (β-actin). In addition, CC50 values are determined based on the Cp values acquired for the housekeeping gene β-actin.
(§2) The culture medium consisted of minimal essential medium supplemented with 2% of heat-inactivated fetal calf serum, 0.04% gentamycin (50 mg/mL) and 2 mM of L-glutamine. Vero cells, obtained from ECACC, were suspended in culture medium and 75 μL/well was added in 96-well plates (10000 cells/well), which already contain the antiviral compounds. […] In addition, each plate contains wells which are assigned as virus controls (containing cells and virus in the absence of compound) and cell controls (containing cells in the absence of virus and compound). Once the cells were added in the plates, the plates were incubated in a fully humidified incubator (37° C., 5% CO2) until the next day. Dengue viruses serotype-1, 2, 3 and 4 were diluted in order to obtain a Cp of ˜22-24 in the assay. Therefore, 25 μL of virus suspension, was added to all the wells containing test compound and to the wells assigned as virus control. In parallel, 25 μL of culture medium was added to the cell controls. Next, the plates were incubated for 3 days in a fully humidified incubator (37° C., 5% CO2). After 3 days, the supernatant was removed from the wells and the cells were washed twice with ice-cold PBS (−100 μL). The cell pellets within the 96-well plates were stored at −80° C. for at least 1 day. Next, RNA was extracted using the Cells-to-CT™ lysis kit, according to the manufacturer's guideline (Life Technologies). The cell lysates can be stored at −80° C. or immediately used in the reverse transcription step.
(§3) In preparation of the reverse transcription step, mix A (table 3A) was prepared and 7.57 μL/well was dispensed in a 96-well plate. After addition of 5 μL of the cell lysates, a five minute denaturation step at 75° C. was performed (table 3B). Afterwards, 7.43 μL of mix B was added (table 3C) and the reverse transcription step was initiated (table 3D) to generate cDNA.
(§4) Finally, a RT-qPCR mix was prepared, mix C (table 4A), and 22.02 μL/well was dispensed in 96-well LightCycler qPCR plates to which 3 μL of cDNA was added and the qPCR was performed according to the conditions in table 4B on a LightCycler 480.
(§5) Using the LightCycler software and an in-house LIMS system, dose response curves for each compound were calculated and the half maximal effective concentration (EC50) and the half maximal cytotoxic concentration (CC50) were determined (Tables 5-8).

[4] = tested on: DENV-3 strain H87; assay: Tetravalent RT-qPCR assay Protocol A, serotype 3; format: cell-based; conditions: Dengue virus, DENV3, 72 h; RT-qPCR serotype 3 H87, Vero cells, day 3
Protocol: as §1, §2, §3, §4, §5

[5] = tested on: DENV-2 strain 16681; assay: Tetravalent RT-qPCR assay Protocol A, serotype 2; format: cell-based; conditions: Dengue virus, DENV2, 72 h; RT-qPCR serotype 2 16681, Vero cells, day 3
Protocol: as §1, §2, §3, §4, §5

[6] = tested on: DENV-4 strain H241; assay: Tetravalent RT-qPCR assay Protocol A, serotype 4 H241; format: cell-based; conditions: Dengue virus, DENV4, 72 h; RT-qPCR serotype 4 H241, Vero cells, day 3
Protocol: as §1, §2, §3, §4, §5

| Compound | pEC50 [1] | CC50 [2] [µM] | pEC50 [3] | pEC50 [4] | pEC50 [5] | pEC50 [6] |
| --- | --- | --- | --- | --- | --- | --- |
| COc1cc(NC(C(=O)c2c[nH]c3cc(F)ccc23)c2ccc(F)cc2OCCO)cc(S(C)(=O)=O)c1 (single isomer, unassigned) [Compound 1B, 1-(6-fluoro-1H-indol-3-yl)-2-(4-fluoro-2-(2-hydroxyethoxy)phenyl)-2-((3-methoxy-5-(methylsulfonyl)phenyl)amino)ethanone] | 7.07 | 13 |  |  |  |  |
| COc1cc(NC(C(=O)c2c[nH]c3cc(Cl)ccc23)c2ccc(F)cc2OCCO)cc(S(C)(=O)=O)c1 (single isomer, unassigned) [Compound 2B, 1-(6-chloro-1H-indol-3-yl)-2-(4-fluoro-2-(2-hydroxyethoxy)phenyl)-2-((3-methoxy-5-(methylsulfonyl)phenyl)amino)-ethanone] | 7.68 | 12 |  |  |  |  |
| COc1cc(NC(C(=O)c2c[nH]c3c(C)c(F)ccc23)c2ccc(F)cc2OCCO)cc(S(C)(=O)=O)c1 (single isomer, unassigned) [Compound 3B, 2-(4-fluoro-2-(2-hydroxyethoxy)phenyl)-1-(6-fluoro-7-methyl-1H-indol-3-yl)-2-((3-methoxy-5-(methylsulfonyl)phenyl)amino)ethanone] | 7.54 | 11 |  |  |  |  |
| COc1cc(NC(C(=O)c2c[nH]c3c(C)c(Cl)ccc23)c2ccc(F)cc2OCCO)cc(S(C)(=O)=O)c1 (single isomer, unassigned) [Compound 4A, 1-(6-chloro-7-methyl-1H-indol-3-yl)-2-(4-fluoro-2-(2-hydroxyethoxy)phenyl)-2-((3-methoxy-5-(methylsulfonyl)phenyl)amino)ethanone] | 7.96 | 11 |  |  |  |  |
| COc1cc(NC(C(=O)c2c[nH]c3cc(F)c(F)cc23)c2ccc(F)cc2OCCO)cc(S(C)(=O)=O)c1 (single isomer, unassigned) [Compound 5B, 1-(5,6-difluoro-1H-indol-3-yl)-2-(4-fluoro-2-(2-hydroxyethoxy)phenyl)-2-((3-methoxy-5-(methylsulfonyl)phenyl)-amino)ethanone] | 7.80 | 11 |  |  |  |  |
| COc1cc(NC(C(=O)c2c[nH]c3cc(OC)c(C)cc23)c2ccc(F)cc2OCCO)cc(S(C)(=O)=O)c1 (single isomer, unassigned) [Compound 6B, 2-(4-fluoro-2-(2-hydroxyethoxy)phenyl)-2-((3-methoxy-5-(methylsulfonyl)phenyl)amino)-1-(6-methoxy-5-methyl-1H-indol-3-yl)ethanone] | 6.80 | 13 |  |  |  |  |
| COc1cc(NC(C(=O)c2c[nH]c3cc(F)c(C)cc23)c2ccc(F)cc2OCCO)cc(S(C)(=O)=O)c1 (single isomer, unassigned) [Compound 7B, 2-(4-fluoro-2-(2-hydroxyethoxy)phenyl)-1-(6-fluoro-5-methyl-1H-indol-3-yl)-2-((3-methoxy-5-(methylsulfonyl)phenyl)amino)ethanone] | 7.44 | 8 |  |  |  |  |
| COc1cc(NC(C(=O)c2c[nH]c3c(F)cc(C)cc23)c2ccc(F)cc2OCCO)cc(S(C)(=O)=O)c1 (single isomer, unassigned) [Compound 8A, 2-(4-fluoro-2-(2-hydroxyethoxy)phenyl)-1-(7-fluoro-5-methyl-1H-indol-3-yl)-2-((3-methoxy-5-(methylsulfonyl)phenyl)amino)ethanone] | 8.96 | 3.4 | 8.64 | 7.44 | 8.85 | 6.66 |
| COc1cc(NC(C(=O)c2c[nH]c3c(F)cc(C)cc23)c2ccc(F)cc2OCCO)cc(S(C)(=O)=O)c1 (single isomer, unassigned) [Compound 8B, 2-(4-fluoro-2-(2-hydroxyethoxy)phenyl)-1-(7-fluoro-5-methyl-1H-indol-3-yl)-2-((3-methoxy-5-(methylsulfonyl)phenyl)amino)ethanone] | 7.32 | 8.2 |  |  |  |  |
| COc1cc(NC(C(=O)c2c[nH]c3c(C)cc(Cl)cc23)c2ccc(F)cc2OCCO)cc(S(C)(=O)=O)c1 (single isomer, unassigned) [Compound 9B, 1-(5-chloro-7-methyl-1H-indol-3-yl)-2-(4-fluoro-2-(2-hydroxyethoxy)phenyl)-2-((3-methoxy-5-(methylsulfonyl)phenyl)amino)ethanone] | 7.29 | 13 |  |  |  |  |
| COc1cc(NC(C(=O)c2c[nH]c3ccc(OC(F)(F)F)cc23)c2ccc(F)cc2OCCO)cc(S(C)(=O)=O)c1 (single isomer, unassigned) [Compound 10A, 2-(4-fluoro-2-(2-hydroxyethoxy)phenyl)-2-((3-methoxy-5-(methylsulfonyl)phenyl)amino)-1-(5-(trifluoromethoxy)-1H-indol-3-yl)ethanone] | 7.70 | 12 |  |  |  |  |
| COc1cc(NC(C(=O)c2c[nH]c3cc(OC)c(OC(F)(F)F)cc23)c2ccc(F)cc2OCCO)cc(S(C)(=O)=O)c1 (single isomer, unassigned) [Compound 11A, 2-(4-fluoro-2-(2-hydroxyethoxy)phenyl)-2-((3-methoxy-5-(methyl-sulfonyl)phenyl)amino)-1-(6-methoxy-5-(trifluoromethoxy)-1H-indol-3-yl)ethanone] | 7.72 | 12 |  |  |  |  |
| COc1cc(NC(C(=O)c2c[nH]c3c(C)cc(OC(F)(F)F)cc23)c2ccc(F)cc2OCCO)cc(S(C)(=O)=O)c1 (single isomer, unassigned) [Compound 12B, 2-(4-fluoro-2-(2-hydroxyethoxy)phenyl)-2-((3-methoxy-5-(methylsulfonyl)phenyl)amino)-1-(7-methyl-5-(trifluoromethoxy)-1H-indol-3-yl)ethanone] | 8.92 | 9.9 |  |  |  |  |
